Legend:
Format in all cases: biochemical
[1] = target: T1, human recombinant PTP1B (Homo sapiens, UniProt P18031); assay: Kinetic analysis of PTP1B inhibition (Lineweaver-Burk plot); settings: pNPP as substrate
T1 sequence (P18031 1-435): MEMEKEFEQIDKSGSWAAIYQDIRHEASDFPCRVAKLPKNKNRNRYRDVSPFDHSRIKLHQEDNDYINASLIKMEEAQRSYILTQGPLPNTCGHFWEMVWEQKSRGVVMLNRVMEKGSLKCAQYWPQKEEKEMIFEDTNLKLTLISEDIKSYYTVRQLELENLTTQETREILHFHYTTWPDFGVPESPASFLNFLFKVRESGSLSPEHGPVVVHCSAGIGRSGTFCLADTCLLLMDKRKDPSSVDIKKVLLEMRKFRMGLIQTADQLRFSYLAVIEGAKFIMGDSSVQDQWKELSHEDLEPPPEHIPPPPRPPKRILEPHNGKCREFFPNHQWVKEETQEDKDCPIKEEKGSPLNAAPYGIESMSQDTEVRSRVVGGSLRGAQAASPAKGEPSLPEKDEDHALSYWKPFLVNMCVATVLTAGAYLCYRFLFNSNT
Description: Kinetic analyses were carried out to dissect action mechanism of compound 4e and 4f. Briefly, the main kinetic parameters, Km and Vmax, were calculated measuring the initial hydrolysis rate of PTP1B in the presence of increasing pNPP concentration (seven different concentrations in the 0.5–25 mM range). All assays were carried out in duplicate. Data obtained were fitted using the Michaelis-Menten equation. To evaluate the action mechanism of inhibitors, we studied the dependence of Km and Vmax from inhibitors concentration, using three different inhibitor concentrations, at least. Data obtained were then analysed by double reciprocal plot (Lineweaver-Burk plot).

[2] = target: T1, human recombinant PTP1B; assay: Inhibition of human recombinant PTP1B, p-nitrophenyl phosphate as substrate; settings: human recombinant PTP1B, pNPP as substrate; mean ± S.E.M
Description: PTP1B activity was determined as follow. […] After an appropriate interval time, the reaction was stopped diluting assay solution with 2 mL of KOH 0.1 M. The amount of p-nitrophenol released was determined measuring the absorbance of the solution at 400 nm using a spectrophotometer and a 1-cm optical pathlength (εmM of p-nitrophenol is 18). The IC50 value was determined measuring the pNPP hydrolysis rate in the presence of increasing inhibitor concentration. For each inhibitor, 15–16 different concentrations were used. All tests were carried out in triplicate and data obtained were normalized respect to control sample.

[3] = target: T2, human recombinant AR (Homo sapiens, UniProt P15121); assay: Reversibility of AR inhibition (dialysis)
T2 construct: made in house; host or cells: E. coli BL21(DE3)pLysS
Description: In order to evaluate the reversibility of the inhibitory action, 8 mU of purified AR were assayed in the presence of 5 μM of compounds 4a, 4e and 4f. In these conditions less than 15% of the enzyme activity was measured in the presence of 2 mM L-idose as substrate. The mixture was then extensively dialysed on Amicon ultrafiltration membrane (cut off 10 KDa) against 10 mM sodium phosphate buffer, pH 7.0. After dialysis, the enzyme activity was again measured as above and compared to that of a mixture in the absence of inhibitor and treated in the same conditions.

With O=C(O)CCN1C(=O)/C(=C/c2ccc(OCCc3ccccc3)cc2)SC1=S [4f, 3-[(5Z)-4-Oxo-{5-[4-(2-phenylethoxy)phenyl]methylidene}-2-thioxothiazolidin-3-yl]propanoic acid] as the compound, how does the “Mechanism of PTP1B inhibition” value [1] read?
Its value is “mixed-type non-competitive inhibitors”.

And the “PTP1B K′i (apparent dissociation constant, EIS complex)” value [1]?
The value was 2.3 ± 0.1 µM.

And the Ki ([1]; read-out: PTP1B Ki (apparent dissociation constant))?
The Ki was 0.9 ± 0.1 µM.

What about the IC50 [2] of the same compound?
Its IC50 is 12.7 ± 0.3 µM.

And the “AR enzyme activity recovered after removal of the inhibitor upon extensive dialysis” value ([3]; 5 μM compound before dialysis)?
The value was “more than 90%”.

And the “AR enzyme activity measured in the presence of compound” value ([3]; 5 μM compound, 2 mM L-idose, before dialysis)?
The value was “less than 15%”.

From paper PMC7828111, “In Search for Multi-Target Ligands as Potential Agents for Diabetes Mellitus and Its Complications—A Structure-Activity Relationship Study on Inhibitors of Aldose Reductase and Protein Tyrosine Phosphatase 1B” (Molecules, 2021)
